In US8575376B2, “Steroide anionic compounds, method of their production, usage and pharmaceutical preparation involving them” (Ustav Organicke Chemie A Biochemie Akademie Ved Ceske …, priority 2009, dated 2013):

Tests used:
Type in all cases: in vivo, rat
[1] = system: rats; experiment: Footshock-induced ultrasonic vocalization (anxiety)
Procedure: Effect of compound from example 9 application at doses of 0.001 mg/kg, 0.01 mg/kg and 10 mg/kg on ultrasonic vocalization after exposure to stressful situation (foot-shock) as a measure of anxiety. Under conditions of stress and pain, rats are known to emit ultrasonic distress calls at a frequency of about 22 kHz. On the first day, rats were placed into the shock chamber individually and after 30 s of habituation, they received 6 inescapable electric foot-shocks (1 shock/1 minute, 1 mA) of 10 seconds duration. The procedure was repeated 24 hours later, but this time, the animals received only one 10-second shock. Afterwards, the rats were injected i.p. with vehicle (b-cyclodextrine) or the compound from example 9 at doses of 0.001, 0.01, and 10 mg/kg) 30 min prior to testing. During the test session, animals were placed into the shock chamber for 10 minutes and their ultrasonic vocalization was recorded. […] Each animal was recorded separately with a Mini-3 Bat Detector (Ultra Sound Advice, London, UK). Ultrasonic vocalizations at 22-kHz consisting of calls with a minimal duration of 300 ms were recorded and analyzed by UltraVox 2.0 program (Noldus, Wageningen, The Netherlands). The total number of vocalization events and their total duration were recorded.

[2] = system: Long-Evans rats; experiment: Learned helplessness model of affective disorders; conditions: 1 mg/kg i.p. after inescapable shocks, tested 24 h later, p<0.01 vs LH group
Procedure: Male Long-Evans rats weighing 350-450 g were used. Animals were housed in groups in an air-conditioned room with 12 h/12 h light/dark cycle with the lights on at 7 a.m. Water and food were available ad libitum. Animals were randomly assigned to 3 groups—control group (received no shocks), learned helplessness group (received shocks) and experimental group (received shocks and injection of compound from example 9). An experimental set-up was composed of two chambers separated by a sliding door. The transparent shock chamber (48×20×20 cm) with one entrance led to the dark chamber (25×15×15 cm) made of black plexiglass. The floor of the shock chamber consisted of metal rods. Shocks were delivered through the grid floor. A shock generator (Data acquisition MF624 multifunction I/O board for PCI, Humusoft Ltd., Czech Republic) was connected to and controlled by a computer. On the pre-treatment day rats were individually placed into the apparatus for 10-minute habituation period. The sliding door separating two chambers was removed allowing free movements between the compartments. Immediately after the habituation rats were confined to the shock chamber for 1 hour. Inescapable shocks (72 V) of 10 s duration were delivered at 50 s intervals. Afterwards animals were injected i.p. with compound from example 9 in dose of 1 mg/kg. […] The number of escapes was recorded. […]

[3] = system: rats; experiment: Forced swim test; conditions: 1 mg/kg i.p., 60 min prior, p<0.001
Procedure: Forced swim test is an experimental model of depression and excessive stress used in laboratory rodents. Rats were randomly assigned to two groups of seven animals each. Control group received an injection of cyclodextrine (i.p.) 60 min. prior to experiment, while experimental group was injected i.p. with the compound from example 9 in a dose of 1 mg/kg 60 minutes prior to the experiment. Rats were forced to swim by being individually placed into a bucket (30 cm diameter, 28 cm height) containing water (25° C.). Immobility (floating) in the water is interpreted as a state of despair when the animals realize that an escape is impossible. Immobility was defined as floating (as opposed to active swimming) with minimal effort required for keeping the head above water. All animals received a single 30-minute trial and their behaviour was monitored by an experimenter. The trial was divided into six 5-minute intervals and floating of at least 30 second duration within each interval was recorded by the experimenter.

[4] = system: Wistar rats; experiment: Thermal nociception, plantar test (limb and tail withdrawal latency)
Procedure: The effect of the compound from example 9 was assessed on acute nociception in rat. Pain was evaluated by measurement of paw/tail withdrawal latencies. Male Wistar rats (Velaz, Czech Republic) were used. Animals were kept at 22° C. (relative humidity was 40-70%) under a 12-hour light/12-hour dark cycle. All experiments were approved by the Committee for Animal Care and conducted in accordance with the ethical guidelines of the International Association for the Study of Pain. The animals were randomly divided into experimental and testing groups groups. The compound from example 9 was dissolved in β-cyclodextrine (the concentration 1.0 mg/ml and 10 mg/kg injected intraperitoneally or β-cyclodextrine injected intraperitoneally in same volume).
Thermal nociception was determined using plantar test equipment (Ugo Basile, Italy). The latency (in seconds) of forelimb, hindlimb or tail withdrawals to the noxious thermal stimulation was measured. Each animal was placed individually in a clear plastic box with a clear glass floor, and was allowed to acclimatize for 10 min; the temperature and humidity in the testing room were kept in the same range as those in the housing rooms. The latencies were measured 3 times per session, separated by a minimum interval of 5 min, and the mean value was used for further analysis. Infrared intensity was set to 40% and the maximum cutoff value was set at 22 seconds to avoid thermal injury. The testing box was cleaned after each session.

[5] = system: Wistar rats; experiment: Spontaneous EEG and epileptic afterdischarges in awake rats
Text: To assess the influence of the compound from example 9 on spontaneous EEG, evoked potentials and epileptic afterdischarges, recording electrodes were implanted into the epidural spaces of the adult Wistar rats. Rats were anaesthetized with isoflurane (1.5-2%) and 4 silver wire bare electrodes were inserted epidurally over sensorimotor cortex. Reference and ground electrodes were placed above cerebellum. The whole montage was fixed to the skull with dental acrylic.
After recovery period (1 week), animals were placed into the plastic boxes and connected to the Video EEG monitoring (VisionBrain/). After 1 hour of background recording the compound from example 9 was administered at the dose of 0.01 mg/kg and EEG was recorded for next 24 hours. Analysis of EEG was performed in a custom-based MATLAB script. Power of the EEG signal was calculated from FFT in frequency band 1.5-45 Hz. Length and duration of spike and wave afterdischarges (SPW) was measured from EEG to assess effect of compound from example 9 (0.01 mg/kg and 10 mg/kg) on epileptiform activity.

Question: What does the source list for `CC(=O)[C@H]1CC[C@H]2[C@@H]3CC[C@@H]4C[C@H](OC(=O)[C@@H](N)CCC(=O)O)CC[C@]4(C)[C@H]3CC[C@]12C` [Example 9, 20-Oxo-5β-pregnan-3α-yl L-glutamyl 1-ester]?
Answer: anxiolytic effect, ultrasonic vocalization ([1]; 0.001, 0.01 and 10 mg/kg i.p., 30 min prior to testing): slight dose-dependent anxiolytic effect; total duration of ultrasonic vocalizations ([1]; 10 mg/kg i.p.): Significant difference; number of escapes (learned helplessness) [2]: significantly increased number of escapes; time spent floating / time to immobility in forced swim test [3]: spent significantly less time by floating, in comparison to controls; limb withdrawal latency to thermal stimulus ([4]; 1 mg/kg i.p.): Such an effect was not however observed; tail withdrawal reaction to thermal stimulus ([4]; 10 mg/kg i.p.): suppressed reactivity to painful stimuli; limb withdrawal latency to thermal stimulus ([4]; 10 mg/kg i.p., p<0.001): significantly prolonged interval of resistance to a painful stimulus; tail withdrawal reaction to thermal stimulus ([4]; lower dose (1 mg/kg i.p.)): did not yield such an effect; spontaneous EEG power ([5]; 60 min and 180 min after application): changes the EEG power at the shorter interval; duration and number of spike-wave afterdischarges ([5]; higher dose (10 mg/kg)): tended to increase these parameter; duration and number of spike-wave afterdischarges ([5]; low dose (0.01 mg/kg)): tended to slightly decrease both duration and number of spike-wave episodes
